Where two headings read alike, the source gives them in different places.
Assays:
[1] = test system: Ipomoea purpurea; experiment: Post-emergence herbicidal effect; assay type: in vivo; conditions: 320 g/ha (dose by row order of upper half), scoring after about 3 weeks
Procedure: (§1) Seeds of monocotyledonous and dicotyledonous weed and crop plants are laid out in sandy loam in wood-fiber pots, covered with soil and cultivated in a greenhouse under good growth conditions. 2 to 3 weeks after sowing, the test plants are treated at the one-leaf stage. The compounds of the invention, formulated in the form of wettable powders (WP) or as emulsion concentrates (EC), are then sprayed onto the green parts of the plants as aqueous suspension or emulsion at a water application rate equating to 600 to 800 L/ha with addition of 0.2% wetting agent. After the trial plants have been left to stand in a greenhouse under optimal growth conditions for about 3 weeks, the efficacy of the formulations is scored visually in comparison to untreated controls (herbicidal action in percent (%): 100% efficacy=the plants have died, 0% efficacy=like control plants).

[2] = test system: Echinochloa crus-galli; experiment: Post-emergence herbicidal effect; assay type: in vivo; conditions: visual scoring after about 3 weeks
Procedure: as §1

[3] = test system: Lolium multiflorum; experiment: Post-emergence herbicidal effect; assay type: in vivo; conditions: visual scoring after about 3 weeks
Procedure: as §1

[4] = test system: Setaria viridis; experiment: Post-emergence herbicidal effect; assay type: in vivo; conditions: 320 g/ha (dose by row order of upper half), scoring after about 3 weeks
Procedure: as §1

[5] = test system: Alopecurus myosuroides; experiment: Post-emergence herbicidal effect; assay type: in vivo; conditions: 320 g/ha, visual scoring after about 3 weeks
Procedure: as §1

[6] = logp (HCOOH), physicochemical characterization
[7] = test system: Triticum aestivum (spring); experiment: Post-emergence herbicidal effect and crop plant compatibility; assay type: in vivo; conditions: visual scoring after about 3 weeks
Method in brief: (§2)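 Foliar treatment: wettable powder or emulsion concentrate diluted in water, 600 to 800 L/ha, with 0.2% wetting agent, sprayed at one leaf. Readout: percent damage judged visually after ~3 wk in greenhouse, relative to untreated plants.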

[8] = test system: Zea mays; experiment: Pre-emergence herbicidal effect and crop plant compatibility; assay type: in vivo; conditions: 3 weeks
Method in brief: (§3)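 Pre-emergence soil-surface application: WP or EC formulations in water (600 to 800 L/ha, 0.2% wetting agent) onto covered seeds in sandy loam. Plants kept under good greenhouse conditions. Damage rated visually at 3 weeks, 0% = control, 100% = dead.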

[9] = test system: Triticum aestivum (spring); experiment: as above; assay type: in vivo; conditions: 3 weeks
Method in brief: as §3

[10] = test system: Echinochloa crus-galli; experiment: Pre-emergence herbicidal effect; assay type: in vivo; conditions: 3 weeks
Method in brief: as §3

[11] = test system: Matricaria inodora; experiment: Pre-emergence herbicidal effect; assay type: in vivo; conditions: 3 weeks
Method in brief: as §3

[12] = test system: Lolium multiflorum; experiment: Pre-emergence herbicidal effect; assay type: in vivo; conditions: 3 weeks
Method in brief: as §3

[13] = test system: Stellaria media; experiment: Pre-emergence herbicidal effect; assay type: in vivo; conditions: 3 weeks
Method in brief: as §3

[14] = test system: Veronica persica; experiment: Pre-emergence herbicidal effect; assay type: in vivo; conditions: 3 weeks
Method in brief: as §3

[15] = test system: Amaranthus retroflexus; experiment: Pre-emergence herbicidal effect; assay type: in vivo; conditions: 3 weeks
Method in brief: as §3

[16] = test system: Polygonum convolvulus; experiment: Pre-emergence herbicidal effect; assay type: in vivo; conditions: 3 weeks
Method in brief: as §3

[17] = test system: Setaria viridis; experiment: Pre-emergence herbicidal effect; assay type: in vivo; conditions: 3 weeks
Method in brief: as §3

[18] = test system: Alopecurus myosuroides; experiment: Pre-emergence herbicidal effect; assay type: in vivo; conditions: 3 weeks
Method in brief: as §3

[19] = test system: Avena fatua; experiment: Pre-emergence herbicidal effect; assay type: in vivo; conditions: 3 weeks
Method in brief: as §3

[20] = test system: Viola tricolor; experiment: Pre-emergence herbicidal effect; assay type: in vivo; conditions: 3 weeks
Method in brief: as §3

[21] = test system: Ipomoea purpurea; experiment: Pre-emergence herbicidal effect; assay type: in vivo; conditions: 3 weeks
Method in brief: as §3

[22] = test system: Abutilon theophrasti; experiment: Pre-emergence herbicidal effect; assay type: in vivo; conditions: 3 weeks
Method in brief: as §3

[23] = test system: Zea mays; experiment: Post-emergence herbicidal effect and crop plant compatibility; assay type: in vivo; conditions: visual scoring after about 3 weeks
Method in brief: as §2

[24] = test system: Oryza sativa; experiment: as above; assay type: in vivo; conditions: visual scoring after about 3 weeks
Method in brief: as §2

[25] = test system: Oryza sativa; experiment: Pre-emergence herbicidal effect and crop plant compatibility; assay type: in vivo; conditions: 3 weeks
Method in brief: as §3

[26] = test system: Cyperus esculentus; experiment: Pre-emergence herbicidal effect; assay type: in vivo; conditions: 3 weeks
Method in brief: as §3

Row | Structure (SMILES) | post-emergence efficacy LOLMU ([3]; 320 g/ha) [%] | logp (HCOOH) [6] | ZEAMX herbicidal activity in percent ([8]; 80 g/ha) [%] | TRZAS herbicidal activity in percent ([9]; 80 g/ha) [%] | TRZAS herbicidal activity in percent ([9]; 320 g/ha) [%] | ECHCG herbicidal activity in percent ([10]; 320 g/ha) [%] | MATIN herbicidal activity in percent ([11]; 80 g/ha) [%] | MATIN herbicidal activity in percent ([11]; 320 g/ha) [%] | LOLMU herbicidal activity in percent ([12]; 320 g/ha) [%] | STEME herbicidal activity in percent ([13]; 80 g/ha) [%] | STEME herbicidal activity in percent ([13]; 320 g/ha) [%] | VERPE herbicidal activity in percent ([14]; 80 g/ha) [%] | VERPE herbicidal activity in percent ([14]; 320 g/ha) [%] | AMARE herbicidal activity in percent ([15]; 80 g/ha) [%] | AMARE herbicidal activity in percent ([15]; 320 g/ha) [%] | POLCO herbicidal activity in percent ([16]; 320 g/ha) [%] | SETVI herbicidal activity in percent ([17]; 320 g/ha) [%] | ALOMY herbicidal activity in percent ([18]; 80 g/ha) [%] | ALOMY herbicidal activity in percent ([18]; 320 g/ha) [%] | VIOTR herbicidal activity in percent ([20]; 320 g/ha) [%] | further results
1 | Cc1ccc2c(c1)[C@H](Nc1ncc3c(n1)COCC3=O)[C@@H](C)C2 [2.97] | 100 | oily; logp (HCOOH): 3.26; 1H-NMR (CDCl3, 400 MHZ, δ in ppm): ): 1.25 (t, 3H, | 0 | 10 | 20 | 100 | 100 | 100 | 100 | 100 | 100 | 100 | 100 | 100 | 100 | 100 | 100 | 100 | 100 | 100 | post-emergence efficacy PHBPU [1]: 100%; post-emergence efficacy ECHCG ([2]; 80 g/ha): 90%; post-emergence efficacy ECHCG ([2]; 320 g/ha): 100%; post-emergence efficacy SETVI [4]: 80%; post-emergence efficacy ALOMY [5]: 100%; post-emergence efficacy TRZAS ([7]; 80 g/ha): 0%; post-emergence efficacy TRZAS ([7]; 320 g/ha): 0%; ECHCG herbicidal activity in percent ([10]; 80 g/ha): 100%; POLCO herbicidal activity in percent ([16]; 80 g/ha): 100%; SETVI herbicidal activity in percent ([17]; 80 g/ha): 100%; AVEFA herbicidal activity in percent ([19]; 320 g/ha): 100%; VIOTR herbicidal activity in percent ([20]; 80 g/ha): 100%
2 | CC(=O)c1cnc(NC2CCOc3ccccc32)nc1C (centres unmarked) [1.83, 1-[2-(3,4-Dihydro-2H-chromen-4-ylamino)-4-methylpyrimidin-5-yl]ethanone] | – | – | – | – | – | – | – | – | – | – | – | – | – | – | – | – | – | – | – | – | chromatographic logP ([6]; HCOOH (formic acid)): 2.44; PHBPU herbicidal activity in percent ([21]; 1280 g/ha): 100%; ECHCG herbicidal activity in percent ([10]; 1280 g/ha): 100%; MATIN herbicidal activity in percent ([11]; 1280 g/ha): 100%; LOLMU herbicidal activity in percent ([12]; 1280 g/ha): 100%; STEME herbicidal activity in percent ([13]; 1280 g/ha): 100%; ABUTH herbicidal activity in percent ([22]; 1280 g/ha): 100%; VERPE herbicidal activity in percent ([14]; 1280 g/ha): 100%; AMARE herbicidal activity in percent ([15]; 1280 g/ha): 100%; POLCO herbicidal activity in percent ([16]; 1280 g/ha): 100%; SETVI herbicidal activity in percent ([17]; 1280 g/ha): 100%; ALOMY herbicidal activity in percent ([18]; 1280 g/ha): 100%; AVEFA herbicidal activity in percent ([19]; 1280 g/ha): 90%; VIOTR herbicidal activity in percent ([20]; 1280 g/ha): 100%
3 | Cc1ccc2c(c1)[C@H](Nc1ncc3c(n1)CC(C(F)(F)F)CC3=O)[C@@H](C)C2 (some centres unmarked) [2.46] | 100 | oily; logp (HCOOH): 3.24; 1H-NMR (CDCl3, 400 MHZ, δ in ppm): 1.25 (t, 3H, CH3); | 0 | 0 | 0 | 100 | 90 | 100 | 100 | 100 | 100 | 100 | 100 | 90 | 100 | 100 | 90 | 90 | 90 | 100 | post-emergence efficacy LOLMU ([3]; 80 g/ha): 80%; post-emergence efficacy ALOMY [5]: 100%; post-emergence efficacy ZEAMX ([23]; 80 g/ha): 0%; post-emergence efficacy ZEAMX ([23]; 320 g/ha): 0%; post-emergence efficacy TRZAS ([7]; 80 g/ha): 10%; post-emergence efficacy TRZAS ([7]; 320 g/ha): 10%; post-emergence efficacy ORYSA ([24]; 80 g/ha): 10%; post-emergence efficacy ORYSA ([24]; 320 g/ha): 20%; ZEAMX herbicidal activity in percent ([8]; 320 g/ha): 0%; ECHCG herbicidal activity in percent ([10]; 80 g/ha): 90%; LOLMU herbicidal activity in percent ([12]; 80 g/ha): 100%; ABUTH herbicidal activity in percent ([22]; 320 g/ha): 80%; SETVI herbicidal activity in percent ([17]; 80 g/ha): 90%; VIOTR herbicidal activity in percent ([20]; 80 g/ha): 100%
4 | O=C1CC(c2ccccc2F)Cc2nc(N[C@@H]3CCCc4ccccc43)ncc21 (some centres unmarked) [2.93] | – | oily; logp (HCOOH): 4.38; 1H-NMR (CDCl3, 400 MHZ, δ in ppm): 1.95 (m, 3H, 2H | – | – | – | – | – | – | – | – | – | – | – | – | – | – | – | – | – | – | ZEAMX herbicidal activity in percent ([8]; 1280 g/ha): 0%; TRZAS herbicidal activity in percent ([9]; 1280 g/ha): 0%; ORYSA herbicidal activity in percent ([25]; 1280 g/ha): 20%; PHBPU herbicidal activity in percent ([21]; 1280 g/ha): 90%; STEME herbicidal activity in percent ([13]; 1280 g/ha): 100%; VERPE herbicidal activity in percent ([14]; 1280 g/ha): 100%; AMARE herbicidal activity in percent ([15]; 1280 g/ha): 80%; CYPES herbicidal activity in percent ([26]; 1280 g/ha): 100%; VIOTR herbicidal activity in percent ([20]; 1280 g/ha): 80%
5 | CC(=O)c1cnc(NC2CCOc3c(C)cccc32)nc1 (racemic) [1.7] | – | – | 0 | 0 | 0 | 90 | 90 | 100 | 100 | 80 | 100 | 100 | 100 | – | 100 | 90 | 90 | 80 | 100 | 100 | logp (HCOOH) ([6]; HCOOH): solid; m.p.: 167-168° C.; logp (HCOOH): 2.54; 1H-NMR (CDCl3, 400 MHZ, δ in; ZEAMX herbicidal activity in percent ([8]; 320 g/ha): 20%; PHBPU herbicidal activity in percent ([21]; 320 g/ha): 100%
6 | CC(=O)c1cnc(N[C@@H]2CCOc3ccccc32)nc1 [1.4] | – | oily; logp (HCOOH): 2.03; 1H-NMR (CDCL3, 400 MHZ, δ in ppm): 2.15 (m, 1H, 1H | – | – | – | 90 | 100 | 100 | – | 90 | 100 | 100 | 100 | 100 | 100 | 100 | 90 | 100 | 100 | 100 | PHBPU herbicidal activity in percent ([21]; 320 g/ha): 100%; POLCO herbicidal activity in percent ([16]; 80 g/ha): 100%; AVEFA herbicidal activity in percent ([19]; 80 g/ha): 100%; AVEFA herbicidal activity in percent ([19]; 320 g/ha): 100%; CYPES herbicidal activity in percent ([26]; 80 g/ha): 80%; CYPES herbicidal activity in percent ([26]; 320 g/ha): 100%; VIOTR herbicidal activity in percent ([20]; 80 g/ha): 100%
7 | O=C1CCCc2nc(NC3CCc4ccccc43)ncc21 (racemic) [2.91] | 100 | oily; logp (HCOOH): 2.62; 1H-NMR (CDCl3, 400 MHZ, δ in ppm): 1.25 (m, 1H, 1H | – | – | – | 100 | – | 100 | 100 | – | 100 | – | 100 | – | 100 | 80 | 100 | – | 90 | 100 | post-emergence efficacy ECHCG ([2]; 320 g/ha): 100%; post-emergence efficacy SETVI [4]: 90%; post-emergence efficacy ORYSA ([24]; 320 g/ha): 0%; ZEAMX herbicidal activity in percent ([8]; 320 g/ha): 20%; ORYSA herbicidal activity in percent ([25]; 320 g/ha): 20%; PHBPU herbicidal activity in percent ([21]; 320 g/ha): 100%; ABUTH herbicidal activity in percent ([22]; 320 g/ha): 100%; AVEFA herbicidal activity in percent ([19]; 320 g/ha): 80%

— US10183914B2 (BAYER CROPSCIENCE AKTIENGESELLSCHAFT, priority 2014, dated 2019)
